{"source": "patent US5670538A", "about": "“Use of prodelphinidins for obtaining medicaments intended for the treatment of arthrosis” (Laboratoires Dolisos, priority 1992, dated 1997)", "tested_on": "human articular chondrocytes", "assay": "Radioimmunoassay of cartilaginous proteoglycans (PG) produced in tridimensional culture of human chondrocytes", "assay_type": "cell-based", "conditions": "for PG in the clusters over 12 days: 0-12 days", "source_text": "The model used for testing the proanthocyanidols, namely the tridimensional culture of human chondrocytes allows chondrorepair to be quantified by the production of matrix substances: type II collagen, proteoglycans, and chondroresorption by the reduction in the levels of prostaglandin E2 and of OH° and O°2 type free radicals produced.\n1. Tridimensional culture of human chondrocytes\nThe technique used has been described in detail (Bassleer et al., 1986).\nBriefly, human articular chondrocytes are cultivated in DMEM (Dulbecco's Modification of Eagle's Medium--ICN--Gand, Belgium) with either Ultroser G 1% (GIBCO, Gand, Belgium) or 10% of foetal calf serum (ICN--Gand--Belgium), and 50 μg of ascorbic acid/ml added to it. The cartilage originates from the apparently normal zone of heads of human femur suffering from arthrosis, immediately after an operation carried out to insert a total hip prosthesis; it can also originate from the head of a healthy femur, but which has undergone a traumatism and has had to be replaced. This cartilage is then digested by clostridial collagenase 1 mg/ml (Boehringer-Mannheim, Germany) in a buffer (NaCl 120 mM, CaCl2 1 mM, KCl 5 mM, KH2 PO4 1 mM, NaHCO3 25 mM, glucose 2 mM and Hepes 30 mM, pH 7.4) for 24 hours. After 6 successive washings and centrifugations, the chondrocytes, isolated from their matrix, are cultured in flasks (10^6 cells/2 ml of culture medium) placed on a gyrator (10 rpm). The cultures are kept at 37° C. in an atmosphere of air 95%-CO2 5% (Bassleer et al., 1986). Cultivated under these conditions, after 4 to 5 days the chondrocytes form a tridimensional cluster in each flask. These clusters, which at first have a flocculent appearance, then tend to condense during the culture. After two weeks, their diameter is, in general, from 1 to 2 mm.\nThe fresh weight of the clusters increases with the duration of the culture, above all during the few first days.\n2. Radioimmunoassay of cartilaginous proteoglycans (PG)\nThe PGs are measured with a radioimmunoassay (RIA) which is specific and sensitive to human cartilaginous PGs (Gysen et al. 1984). The PGs were extracted from human cartilage, according to the methods described by Roughley et al., (1981) and by Bayliss and Venn (1980). The antiserum against the cartilaginous PGs was obtained from the rabbit according to the technique of Vaitukaitis et al. (1971). The radioimmunoassay is carried out in a 0.4 ml volume consisting of 0.1 ml of tracer solution (15000 to 20000 cpm ^125 I-PG, labelled by the chloramine T method (Greenwood, 1973). 0.1 ml of anti-PG antiserum diluted to 1/5000 in phosphate-buffered saline (PBS-50 mM PO4, 150 mM NaCl ), containing BSA (5 g/l bovine serum albumin and 6.7 mM sodium azide) (incubation buffer) and 0.2 ml of several dilutions of the culture medium or of the cluster extract or also of the antigen (0.5 -500 ng/tube).\nAfter four days at 4° C., the free PGs* (radioactive PGs) are separated from the PG*-antibody complexes by double precipitation (Franchimont et al., 1983).\nThe sensitivity of the assay is 0.6 ng/tube. The accuracy of measurement is of the order of 4%. The coefficients of the intra- and inter assay variation are less than 10% and 20% respectively.\nThe antibodies are directed against the antigenic determinants of the central protein of PG. There is a complete crossed reaction with human PGs of cartilage from the ribs, vertebral disks and trachea, even with PGs extracted from veins or arteries. There is no cross reaction with glycosaminoglycans or with PGs extracted from foetal tissues or the small PGs from bone.\nThe PGs are measured directly in the culture medium. As for the chondrocyte clusters, they are washed 3 times in a phosphate-buffered saline (PBS-50 mM PO4, 150 mM NaCl pH 7.4) containing protease inhibitors (Oegema et al., 1975:100 mM 6-aminohexanoic acid, 10 mM EDTA, 50 mM benzamidine hydrochloride, 5.10^-8 M trypsin inhibitor, 6.7 mM sodium azide and 200 U/ml superoxide dismutase). […]", "note": "Where two headings read alike, the source gives them in different places.", "data": [{"smiles": "Oc1cc(O)c2c(c1)O[C@H](c1cc(O)c(O)c(O)c1)[C@@H](O)[C@@H]2c1c(O)cc(O)c2c1O[C@H](c1cc(O)c(O)c(O)c1)[C@@H](O)[C@@H]2c1c(O)cc(O)c2c1O[C@H](c1cc(O)c(O)c(O)c1)[C@@H](O)C2", "note": "[Substance Ic, GC-(4 alpha→8) GC-(4 a→8)-GC]", "values": [{"measurement": "PG in the clusters over 12 days", "setting": "1% Ultroser G, 1 μg/ml", "value": "886 ± 114", "unit": "ng/μg DNA"}, {"measurement": "PG in the clusters over 12 days", "setting": "1% Ultroser G, 10 μg/ml", "value": "1046 ± 74", "unit": "ng/μg DNA"}, {"measurement": "PG in the clusters over 12 days", "setting": "1% Ultroser G, 100 μg/ml", "value": "1184 ± 33", "unit": "ng/μg DNA"}, {"measurement": "PGs released in the culture medium, effect in words", "setting": "1% Ultroser G, 1 μg/ml", "value": "significant effect"}, {"measurement": "PGs released in the culture medium", "setting": "1% Ultroser G, culture time 0-4 days, 1 μg/ml", "value": "15.9 ± 1.15", "unit": "μg/μg DNA/96 h"}, {"measurement": "PGs released in the culture medium", "setting": "1% Ultroser G, culture time 0-4 days, 10 μg/ml", "value": "19.1 ± 1.2", "unit": "μg/μg DNA/96 h"}, {"measurement": "PGs released in the culture medium", "setting": "1% Ultroser G, culture time 0-4 days, 100 μg/ml", "value": "21.1 ± 1.0", "unit": "μg/μg DNA/96 h"}, {"measurement": "PGs released in the culture medium", "setting": "1% Ultroser G, culture time 4-8 days, 1 μg/ml", "value": "3.7 ± 0.15", "unit": "μg/μg DNA/96 h"}, {"measurement": "PGs released in the culture medium", "setting": "1% Ultroser G, culture time 4-8 days, 10 μg/ml", "value": "4.4 ± 0.52", "unit": "μg/μg DNA/96 h"}, {"measurement": "PGs released in the culture medium", "setting": "1% Ultroser G, culture time 4-8 days, 100 μg/ml", "value": "4.9 ± 0.45", "unit": "μg/μg DNA/96 h"}, {"measurement": "PGs released in the culture medium", "setting": "1% Ultroser G, culture time 8-12 days, 1 μg/ml", "value": "1.32 ± 0.7", "unit": "μg/μg DNA/96 h"}, {"measurement": "PGs released in the culture medium", "setting": "1% Ultroser G, culture time 8-12 days, 10 μg/ml", "value": "1.53 ± 0.15", "unit": "μg/μg DNA/96 h"}, {"measurement": "PGs released in the culture medium", "setting": "1% Ultroser G, culture time 8-12 days, 100 μg/ml", "value": "1.75 ± 0.05", "unit": "μg/μg DNA/96 h"}, {"measurement": "Proteoglycans released during the 12 days of culture, Abs", "setting": "1% Ultroser G, cumulative, 1 μg/ml", "value": 20.9, "unit": "μg/μg DNA/12 days"}, {"measurement": "Proteoglycans released during the 12 days of culture, Abs", "setting": "1% Ultroser G, cumulative, 10 μg/ml", "value": 25, "unit": "μg/μg DNA/12 days"}, {"measurement": "Proteoglycans released during the 12 days of culture, Abs", "setting": "1% Ultroser G, cumulative, 100 μg/ml", "value": 27.8, "unit": "μg/μg DNA/12 days"}, {"measurement": "Concentrations of PG in the clusters, effect in words", "setting": "1% Ultroser G, three concentrations studied", "value": "significantly stimulated and in a dose-dependent way"}, {"measurement": "activity at 1 µg/mL", "setting": "Homo sapiens, Chondrocyte, 288 h, 1% Ultroser G, cumulative, 1 μg/ml, control = 100, read-out: Proteoglycans released during the 12 days of culture, %", "value": 127, "unit": "%"}, {"measurement": "activity at 10 µg/mL", "setting": "Homo sapiens, Chondrocyte, 288 h, 1% Ultroser G, cumulative, 10 μg/ml, control = 100, read-out: Proteoglycans released during the 12 days of culture, %", "value": 150, "unit": "%"}, {"measurement": "activity at 100 µg/mL", "setting": "Homo sapiens, Chondrocyte, 288 h, 1% Ultroser G, cumulative, 100 μg/ml, control = 100, read-out: Proteoglycans released during the 12 days of culture, %", "value": 170, "unit": "%"}, {"measurement": "activity at 10 µg/mL", "setting": "Homo sapiens, Chondrocyte, foetal calf serum, Table 14, 0-4 days, 10 μg/ml, control = 100%, read-out: PG in the culture medium, % of control", "value": 120, "unit": "%"}, {"measurement": "activity at 100 µg/mL", "setting": "Homo sapiens, Chondrocyte, foetal calf serum, Table 14, 0-4 days, 100 μg/ml, control = 100%, read-out: PG in the culture medium, % of control", "value": 160, "unit": "%"}, {"measurement": "activity at 10 µg/mL", "setting": "Homo sapiens, Chondrocyte, foetal calf serum, Table 14, 4-8 days, 10 μg/ml, control = 100%, read-out: PG in the culture medium, % of control", "value": 118, "unit": "%"}, {"measurement": "activity at 100 µg/mL", "setting": "Homo sapiens, Chondrocyte, foetal calf serum, Table 14, 4-8 days, 100 μg/ml, control = 100%, read-out: PG in the culture medium, % of control", "value": 121, "unit": "%"}, {"measurement": "activity at 10 µg/mL", "setting": "Homo sapiens, Chondrocyte, foetal calf serum, Table 15, 0-4 days, 10 μg/ml, control = 100%, read-out: PG in the culture medium, % of control", "value": 132, "unit": "%"}, {"measurement": "activity at 100 µg/mL", "setting": "Homo sapiens, Chondrocyte, foetal calf serum, Table 15, 0-4 days, 100 μg/ml, control = 100%, read-out: PG in the culture medium, % of control", "value": 140, "unit": "%"}, {"measurement": "activity at 10 µg/mL", "setting": "Homo sapiens, Chondrocyte, foetal calf serum, Table 15, 4-8 days, 10 μg/ml, control = 100%, read-out: PG in the culture medium, % of control", "value": 117, "unit": "%"}, {"measurement": "activity at 100 µg/mL", "setting": "Homo sapiens, Chondrocyte, foetal calf serum, Table 15, 4-8 days, 100 μg/ml, control = 100%, read-out: PG in the culture medium, % of control", "value": 138, "unit": "%"}, {"measurement": "activity at 10 µg/mL", "setting": "Homo sapiens, Chondrocyte, foetal calf serum, Table 16, 0-8 days, 10 μg/ml, control = 100%, read-out: PG in the clusters over 8 days, % of control", "value": 117, "unit": "%"}, {"measurement": "activity at 100 µg/mL", "setting": "Homo sapiens, Chondrocyte, foetal calf serum, Table 16, 0-8 days, 100 μg/ml, control = 100%, read-out: PG in the clusters over 8 days, % of control", "value": 132, "unit": "%"}, {"measurement": "activity at 10 µg/mL", "setting": "Homo sapiens, Chondrocyte, foetal calf serum, Table 17, 0-8 days, 10 μg/ml, control = 100%, read-out: PG in the clusters over 8 days, % of control", "value": 125, "unit": "%"}, {"measurement": "activity at 100 µg/mL", "setting": "Homo sapiens, Chondrocyte, foetal calf serum, Table 17, 0-8 days, 100 μg/ml, control = 100%, read-out: PG in the clusters over 8 days, % of control", "value": 139, "unit": "%"}, {"measurement": "PGs in the clusters, effect in words", "setting": "foetal calf serum, 10 and 100 μg/ml", "value": "significantly increased"}, {"measurement": "PG in the culture medium", "setting": "foetal calf serum, Table 14, 0-4 days, 10 μg/ml", "value": "7.8 ± 1.51", "unit": "μg/μg DNA - 96 H"}, {"measurement": "PG in the culture medium", "setting": "foetal calf serum, Table 14, 0-4 days, 100 μg/ml", "value": "10.4 ± 1.19", "unit": "μg/μg DNA - 96 H"}, {"measurement": "PG in the culture medium", "setting": "foetal calf serum, Table 14, 4-8 days, 10 μg/ml", "value": "2.34 ± 0.08", "unit": "μg/μg DNA - 96 H"}, {"measurement": "PG in the culture medium", "setting": "foetal calf serum, Table 14, 4-8 days, 100 μg/ml", "value": "2.40 ± 0.35", "unit": "μg/μg DNA - 96 H"}, {"measurement": "PG in the culture medium", "setting": "foetal calf serum, Table 15, 0-4 days, 10 μg/ml", "value": "7.0 ± 1.19", "unit": "μg/μg DNA - 96 H"}, {"measurement": "PG in the culture medium", "setting": "foetal calf serum, Table 15, 0-4 days, 100 μg/ml", "value": "7.5 ± 0.96", "unit": "μg/μg DNA - 96 H"}, {"measurement": "PG in the culture medium", "setting": "foetal calf serum, Table 15, 4-8 days, 10 μg/ml", "value": "2.0 ± 0.17", "unit": "μg/μg DNA - 96 H"}, {"measurement": "PG in the culture medium", "setting": "foetal calf serum, Table 15, 4-8 days, 100 μg/ml", "value": "2.4 ± 0.25", "unit": "μg/μg DNA - 96 H"}, {"measurement": "PG in the clusters over 8 days", "setting": "foetal calf serum, Table 16, 0-8 days, 10 μg/ml", "value": "915 ± 75", "unit": "ng/μg DNA"}, {"measurement": "PG in the clusters over 8 days", "setting": "foetal calf serum, Table 16, 0-8 days, 100 μg/ml", "value": "1035 ± 121", "unit": "ng/μg DNA"}, {"measurement": "PG in the clusters over 8 days", "setting": "foetal calf serum, Table 17, 0-8 days, 10 μg/ml", "value": "718.2 ± 62.61", "unit": "ng/μg DNA"}, {"measurement": "PG in the clusters over 8 days", "setting": "foetal calf serum, Table 17, 0-8 days, 100 μg/ml", "value": "799.5 ± 85.9", "unit": "ng/μg DNA"}]}]}
